Assay results from PubChem BioAssay (NCI).
“And” between values parts separate entries of the source, which are not always exact repeats. Identical values can stand only once.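 48-hour exposure; five concentrations; linearly interpolated endpoints. The concentration for 50% growth inhibition is given as GI50. TGI denotes the concentration required for complete inhibition of growth.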

What was measured:
Assay in all cases: growth of human tumour cells (NCI), 48 h
HT29 colon = test system: HT29 colon
NCI-H226 lung = test system: NCI-H226 lung
UO-31 renal = test system: UO-31 renal
DU-145 prostate = test system: DU-145 prostate
SK-MEL-2 melanoma = test system: SK-MEL-2 melanoma
RPMI-8226 leukemia = test system: RPMI-8226 leukemia
A549 NSCLC = test system: A549 NSCLC
BT-549 breast = test system: BT-549 breast
CCRF-CEM leukemia = test system: CCRF-CEM leukemia
OVCAR-8 ovarian = test system: OVCAR-8 ovarian

Row | SMILES | GI50 (HT29 colon) | TGI (HT29 colon) | GI50 (NCI-H226 lung) | TGI (NCI-H226 lung) | GI50 (UO-31 renal) | TGI (UO-31 renal) | GI50 (DU-145 prostate) | TGI (DU-145 prostate) | GI50 (SK-MEL-2 melanoma) | TGI (SK-MEL-2 melanoma) | GI50 (RPMI-8226 leukemia) | TGI (RPMI-8226 leukemia) | GI50 (A549 NSCLC) | TGI (A549 NSCLC) | GI50 (BT-549 breast) | TGI (BT-549 breast) | GI50 (CCRF-CEM leukemia) | TGI (CCRF-CEM leukemia) | GI50 (OVCAR-8 ovarian) | TGI (OVCAR-8 ovarian)
1 | CC1=C(Nc2ccc(N3CCN(C)CC3)cc2)C(=O)c2cncnc2C1=O | 10.2 µM | 61.8 µM | 15.2 µM | 35.7 µM | 13.9 µM | 33.5 µM | 4.34 µM | 16.9 µM | 16 µM | 42 µM | 3.26 µM | 11.7 µM | 3.96 µM | 17.6 µM | 17.1 µM | 32.5 µM | 2.6 µM | > 100 µM | 2.28 µM | 6.28 µM
2 | COc1cc(-c2nn(-c3cccc(NC(=O)c4ccc(Cl)c(C(F)(F)F)c4)c3)cc2-c2ccncc2)ccc1Cl | 3.33 µM | > 26.1 µM | 7.83 µM | > 32.5 µM | 0.551 µM | > 32.5 µM | 5.46 µM | > 32.5 µM | 1.42 µM | 10.1 µM | 1.08 µM | > 21.8 µM | 2.41 µM | > 32.5 µM | 4.35 µM | > 32.5 µM | 1.77 µM | > 32.5 µM | 3.35 µM | > 32.5 µM
3 | CC[C@H](C)[C@H](NC(=O)[C@H]1CCCCN1C)C(=O)N(C)[C@H](C[C@@H](OC(C)=O)c1nc(C(=O)N[C@@H](Cc2ccccc2)C[C@H](C)C(=O)O)cs1)C(C)C | 0.000356 µM and 0.00165 µM | 0.002 µM | 0.0113 µM and < 0.00165 µM | < 0.00165 µM | 0.00788 µM and 0.00165 µM | > 16.5 µM | 0.000475 µM and 0.00165 µM | 0.0367 µM | 0.0007 µM | – | 0.000264 µM and 0.00165 µM | 6.56 µM | 0.00153 µM and 0.00165 µM | > 16.5 µM | 0.000676 µM and < 0.00165 µM | – | 0.000392 µM and 0.00165 µM | 2.49 µM | 0.00297 µM and 0.00165 µM | > 16.5 µM
4 | COc1cc2c3c(n(C)c(=O)c2cc1OC)-c1ccc(C#N)cc1C3=O | > 100 µM | > 100 µM | > 100 µM | > 100 µM | > 100 µM | > 100 µM | > 100 µM | > 100 µM | > 100 µM | > 100 µM | > 100 µM | > 100 µM | > 100 µM | > 100 µM | > 100 µM | > 100 µM | > 100 µM | > 100 µM | > 100 µM | > 100 µM
5 | COc1ccc(N=N/C(C(=O)C(F)(F)F)=C(\O)c2ccc(Cl)cc2)cc1 | 4.6 µM | 17.2 µM | 21.2 µM | > 100 µM | 8.18 µM | 47.6 µM | 14.6 µM | 70.8 µM | 2.78 µM | 8.68 µM | 5.96 µM | 47.3 µM | 3.83 µM | 16.8 µM | 7.04 µM | 47.2 µM | 4.61 µM | > 100 µM | 10.7 µM | 70.3 µM
6 | O=C1NC(=NCCCc2ccccc2)S/C1=C\c1ccc2ncccc2c1 | 6.55 µM | > 21.4 µM | 4.2 µM | 10.7 µM | 4.06 µM | 11.9 µM | 5.89 µM | 18 µM | 4.96 µM | 9.67 µM | 5.52 µM | 14.6 µM | 4.68 µM | 13.8 µM | 4.58 µM | 10.4 µM | 7.11 µM | > 25 µM | 5.94 µM | 16.8 µM
